These are literature values, as cited in patent publication US20050147620A1, “Cinnamon formulation for reducing cholesterol and/or glucose levels” (priority 2004, published 2005).

Broadly, the pKa is the negative logarithm of the acid dissociation constant.

The conditions of data set [1]: ingestion of 20 to 30 g per day for several days.

`CN(CC(=O)O)C(=N)N.O` [creatine monohydrate]: the “increase in human skeletal muscle total creatine content” value in data set [1] was “greater than 20%”.
As to `O=C(O)CCCCC1CCSS1` (stereo not drawn) [lipoic acid, α-lipoic acid], the pKa is recorded as 4.7.
